According to patent publication US12173088B2, “Anti-microbial peptides” (priority 2018, dated 2024):
Converted amounts (≈) assume the structure as drawn. “Also recorded” adds a separate entry of the source. Where two headings read alike, the source gives them in different places. Ends that are not written are not given here.

Key:
S. aureus USA300 [1] = assay: Propidium iodide membrane permeation; format: cell-based, Staphylococcus aureus
Description: The membrane permeation experiment was performed as described with minor modifications (Wang, et al. (2005) J. Biol. Chem., 280:5803-5811). Serially diluted 10× peptides (10 μL each well) were created in 96-well microtiter plates. Propidium iodide (2 μL) at a fixed concentration of 20 μM were added to each well followed by 88 μL of the S. aureus USA300 culture (a final OD600˜0.1 in TSB media). The plate was incubated at 37° C. with continuous shaking at 100 rpm in a FLUOstar® Omega (BMG LABTECH, Cary, NC) microplate reader. The fluorescence from the plate was read every 5 minutes for a total duration of 2 hours with an excitation and emission wavelengths of 584 nm and 620 nm, respectively. Plots were made using average values of duplicated experiments with MARS software.
The experiment was performed as described previously with minor modifications (Mishra, et al. (2017) Acta Biomater., 49:316-328). Serially diluted 10× peptides (10 μL each well) were created in 96-well microtiter plates. Propidium iodide (2 μL) at a fixed concentration of 20 μM were added to each well followed by 88 μL of the S. aureus USA300 culture (a final OD600˜0.1 in TSB media or PBS). The plate was incubated at 37° C. with continuous shaking at 100 rpm in a FLUOstar® Omega (BMG LABTECH) microplate reader. The samples fluorescence was read at every 5 minutes for 24 cycles with an excitation and emission wavelengths of 584 nm and 620 nm, respectively. Plots generated using average values from the experiments using GraphPad Prism.

E. faecium V286-17 (VRE) = assay: microbe, parasite or virus in culture; format: cell-based, Enterococcus faecium; conditions: Enterococcus faecium, VRE, read-out: MIC E. faecium V286-17 (VRE)
Excerpt: (§1) The bacterial strains used include the Gram-positive strains Staphylococcus aureus USA300 LAC, S. epidermidis 1457, and Bacillus subtilis 168, as well as the Gram-negative isolates Escherichia coli K12 and Acinetobacter baumannii B2367-12. Additional, drug resistance strains include Gram-positive Enterococcus faecium V286-17 (VRE) and S. aureus M838-17 (MRSA) and Gram-negative E. coli E423-17, E. coli E416-17 (ampC), and P. aeruginosa E411-17. Bacteria were cultivated in tryptic soy broth (TSB) (BD Bioscience, MD).
(§2) The antibacterial activity of peptides was evaluated using a standard broth microdilution protocol with minor modifications as described (Mishra, et al. (2012) J. Am. Chem. Soc., 134:12426-12429). In brief, logarithmic phase bacterial cultures (i.e., optical density at 600 nm≈0.5) were diluted to OD600 0.001 and partitioned into a 96-well polystyrene microplate at 90 μL per well. After treatment with 10 μL of peptide solutions two fold diluted to various concentrations, microplates were incubated at 37° C. overnight and read on a ChroMate® 4300 Microplate Reader at 630 nm (GMI, Ramsey, MN). […] To study the influence of medium conditions on the antimicrobial activity of peptides against S. aureus USA300, up to 200 mM sodium chloride (NaCl), 2 mM of calcium chloride, 5-10% of human serum, mouse plasma, fluid, or supernatants of tissue homogenates were included into the assays.
(§3) The bacterial strains used include the Gram-positive bacteria methicillin-resistant Staphylococcus aureus USA300, Enterococcus faecium V286-17 (VRE), S. aureus M838-17 (MRSA) and Gram-negative bacteria E. coli E423-17, E416-7 (ampC), P. aeruginosa E411-17, PA01, K. pneumoniae E406-17, ATCC13883, and A. baumannii B26-16. Bacteria were cultivated in tryptic soy broth (TSB) from BD Bioscience.
(§4) The antibacterial activity of peptides was evaluated using a standard broth microdilution protocol with minor modifications (Mishra, et al. (2017) Acta Biomater., 49:316-328). In brief, logarithmic phase bacterial cultures (i.e., optical density at 600 nm≈0.5) were diluted to 0.001 OD and aliquoted 90 μL per well into a 96-well polystyrene microplate. Added 10 μL peptides per well with various concentrations, plates were incubated at 37° C., overnight. Post incubation the plates are read at 630 nm using a ChroMate® Microplate Reader (GMI). […] To study the influence of medium conditions on the antimicrobial activity of peptides against S. aureus USA300 at different pHs (6.8, 7.2, and 8.0), 150 mM sodium chloride (NaCl), 5-10% of human serum, mouse plasma, and peritoneal fluid were included into the assays.

P. aeruginosa E411-17 = assay: microbe, parasite or virus in culture; format: cell-based, Pseudomonas aeruginosa; conditions: Pseudomonas aeruginosa, E41117; Table 14; read-out: MIC P. aeruginosa E411-17
Excerpt: as §1, §2, §3, §4

S. aureus M838-17 (MRSA) = assay: microbe, parasite or virus in culture; format: cell-based, Staphylococcus aureus; conditions: Staphylococcus aureus, MRSA; Table 7; by weight; read-out: MIC S. aureus M838-17 (MRSA)
How it was run: (§5)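 Broth microdilution: log-phase cultures in tryptic soy broth diluted to OD600 0.001, exposed to two-fold diluted peptides at 37° C overnight, growth read at 630 nm. Medium effects on S. aureus USA300 tested with up to 200 mM NaCl, 2 mM CaCl2, 5-10% human serum, mouse plasma, fluids or tissue homogenate supernatants.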

S. aureus USA300 [2] = assay: microbe, parasite or virus in culture; format: cell-based, Staphylococcus aureus; conditions: Staphylococcus aureus, MRSA / USA300; Table 14; read-out: MIC S. aureus USA300 (MRSA)
How it was run: as §5

A. baumannii B26-16 = assay: microbe, parasite or virus in culture; format: cell-based, Acinetobacter baumannii; conditions: Acinetobacter baumannii, B2616; Table 14; read-out: MIC A. baumannii B26-16
Description: as §3, §4

E. coli E423-17 = assay: microbe, parasite or virus in culture; format: cell-based, Escherichia coli; conditions: Escherichia coli, E42317; Table 14; read-out: MIC E. coli E423-17
Excerpt: as §1, §2, §3, §4

S. aureus USA300 [3] = format: in vivo, Staphylococcus aureus; conditions: different tissues; single i.p. injection; positive control
Description: Female C57BL/6 mice (6 weeks old) were purchased from Charles River. After environment adaptation, mice were induced neutropenic by administering two doses of cyclophosphamide on day 1 (150 mg/kg) and Day 4 (100 mg/kg). This cyclophosphamide administration was skipped for experiments using non-neutropenic mice (i.e., normal mice). On day 5, mice were infected with S. aureus USA300 LAC (˜2×10^6 CFU per mouse) via intraperitoneal injection (i.p.). For the treatment groups, mice were i.p. treated 2 hours post infection with peptides at a single dose of 5 mg/kg. Both positive and negative controls were included. At the end of the experiments, all animals were sacrificed according to institutional guidelines. Organs, including spleen, lung, kidney, and liver, were harvested, weighed, placed in sterile PBS and stored on ice. Harvested animal organs were subsequently homogenized using homogenizer (Omni, Kennesaw, GA). Proper dilutions, especially for untreated control groups, were made to get countable colonies. Blood agar plates were then incubated overnight at 37° C. The bacteria grown on plates were enumerated and plotted using the Graph pad Prism software.
Female C57BL/6 or Balb/c mice (6 weeks old) were purchased from Charles River. The mice were induced neutropenic by administering two doses of cyclophosphamide on day 1 (150 mg/kg) and Day 4 (100 mg/kg). On day 5, mice were infected with S. aureus USA300 (˜2×10^6 CFU per mouse) or K. pneumoniae E406-17 (˜5×10^5 CFU per mouse) via intraperitoneal injection (i.p.). For the treatment groups, mice were i.p. or intravenous (i.v.) treated 2 hours post infection with peptides at a single dose of 5, 10, or 15 mg/kg. Both positive and negative controls are used. At the end of the experiments, all animals were sacrificed according to institutional guidelines. […] The CFU of each mouse was plotted as an individual point and error bars represent the deviation within the experimental group. * p<0.05 ** p<0.01, ***p<0.001 and NS represents no significance (determined by Mann-Whitney test).

K. pneumoniae E406-17 = assay: microbe, parasite or virus in culture; format: cell-based, Klebsiella pneumoniae; conditions: Klebsiella pneumoniae, E40617; Table 14; read-out: MIC K. pneumoniae E406-17
Description: as §2, §3, §4

[4] = literature; cited from earlier work

Molecule | Propidium iodide membrane permeation (S. aureus USA300 [1]) | MIC (E. faecium V286-17 (VRE); Table 7) | MIC (E. faecium V286-17 (VRE); Table 14) | MIC (P. aeruginosa E411-17) | MIC (S. aureus M838-17 (MRSA)) | MIC (S. aureus USA300 [2]) | MIC (A. baumannii B26-16) | MIC (E. coli E423-17) | Decrease in bacterial burden (S. aureus USA300 [3]) | MIC (K. pneumoniae E406-17) | In vivo outcome [4]
CCCCCCCCCC(=O)N[C@@H](Cc1c[nH]c2ccccc12)C(=O)N[C@H](CC(N)=O)C(=O)N[C@@H](CC(=O)O)C(=O)N[C@@H]1C(=O)NCC(=O)N[C@@H](CCCN)C(=O)N[C@@H](CC(=O)O)C(=O)N[C@H](C)C(=O)N[C@@H](CC(=O)O)C(=O)NCC(=O)N[C@H](CO)C(=O)N[C@@H]([C@H](C)CC(=O)O)C(=O)N[C@@H](CC(=O)c2ccccc2N)C(=O)O[C@@H]1C [Daptomycin] | fluorescence increase; also recorded: permeated bacterial membranes | 3.1 µM (≈ 5.02 µg/mL) | 4 µM (≈ 6.48 µg/mL) | > 8 µM | 0.78 µM (≈ 1.26 µg/mL) | 4 µM (≈ 6.48 µg/mL) | > 8 µM | > 8 µM | 1-4 logs | > 8 µM | 
CO[C@H]1/C=C/O[C@@]2(C)Oc3c(C)c(O)c4c(O)c(cc(O)c4c3C2=O)NC(=O)/C(C)=C\C=C\[C@H](C)[C@H](O)[C@@H](C)[C@@H](O)[C@@H](C)[C@H](OC(C)=O)[C@@H]1C [Rifamycin, reference compound] | failed to permeate | 12.5 µM (≈ 8.72 µg/mL) | > 8 µM | > 8 µM | 1.56 µM (≈ 1.09 µg/mL) | 0.25 µM (≈ 0.174 µg/mL) | > 8 µM | > 8 µM |  | > 8 µM | 
ALWMTLLKKVLKAAAK (not fully specified (C-terminus)) [DS4(1-16)] |  |  |  |  |  |  |  |  |  |  | failure
GIGKFLKKAKKFGKAFVKILKK (not fully specified (C-terminus)) [MSI-78] |  |  |  |  |  |  |  |  |  |  | failure
RPDKPRPYLPRPRPPRPVR (not fully specified (C-terminus)) [Peptide A3-APO] |  |  |  |  |  |  |  |  |  |  | showed in vivo efficacy
